Data: ChEMBL document CHEMBL1154389, “Discovery of pyrimidine benzimidazoles as Src-family selective Lck inhibitors. Part II” (Bioorg Med Chem Lett, 2009)

Key:
[1] = target: Proto-oncogene tyrosine-protein kinase Src (Homo sapiens, UniProt P12931); test: Inhibition of SRC
[2] = target: Tyrosine-protein kinase Lck (Homo sapiens, UniProt P06239); test: Inhibition of LCK
[3] = target: Tyrosine-protein kinase HCK (Homo sapiens, UniProt P08631); test: Inhibition of HCK
[4] = (§1) AUC in mouse at 20 mg/kg, po; type: ADME, organism-based, Plasma; parameters: dose 20 mg/kg, route oral; conditions: mouse, plasma, po, 20 mg/kg
[5] = Metabolic stability in mouse assessed as extraction ratio at 20 mg/kg, po; type: ADME, organism-based; parameters: dose 20 mg/kg, route oral; conditions: in vivo
Mus musculus = test: as §1; type: ADME, organism-based, Plasma; parameters: dose 20 mg/kg, route oral
BaF3 = test: Cytotoxicity against mouse BAF3 cells; type: functional, cell-based

Chain of Tyrosine-protein kinase HCK (P08631 whole entry): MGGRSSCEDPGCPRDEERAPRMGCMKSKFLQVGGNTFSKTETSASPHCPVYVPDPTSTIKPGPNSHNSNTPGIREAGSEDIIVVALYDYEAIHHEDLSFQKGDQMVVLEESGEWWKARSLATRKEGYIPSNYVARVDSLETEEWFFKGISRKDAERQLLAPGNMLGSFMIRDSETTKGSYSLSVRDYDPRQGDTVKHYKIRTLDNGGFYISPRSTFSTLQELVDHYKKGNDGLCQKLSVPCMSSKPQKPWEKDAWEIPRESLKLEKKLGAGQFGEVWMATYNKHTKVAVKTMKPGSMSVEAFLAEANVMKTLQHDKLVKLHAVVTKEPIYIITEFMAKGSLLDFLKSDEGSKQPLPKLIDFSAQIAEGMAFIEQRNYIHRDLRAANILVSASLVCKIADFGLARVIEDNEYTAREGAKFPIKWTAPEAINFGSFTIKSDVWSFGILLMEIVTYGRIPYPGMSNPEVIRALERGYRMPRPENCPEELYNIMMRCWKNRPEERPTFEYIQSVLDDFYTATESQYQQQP
Chain of Proto-oncogene tyrosine-protein kinase Src (P12931 2-536 limits assumed): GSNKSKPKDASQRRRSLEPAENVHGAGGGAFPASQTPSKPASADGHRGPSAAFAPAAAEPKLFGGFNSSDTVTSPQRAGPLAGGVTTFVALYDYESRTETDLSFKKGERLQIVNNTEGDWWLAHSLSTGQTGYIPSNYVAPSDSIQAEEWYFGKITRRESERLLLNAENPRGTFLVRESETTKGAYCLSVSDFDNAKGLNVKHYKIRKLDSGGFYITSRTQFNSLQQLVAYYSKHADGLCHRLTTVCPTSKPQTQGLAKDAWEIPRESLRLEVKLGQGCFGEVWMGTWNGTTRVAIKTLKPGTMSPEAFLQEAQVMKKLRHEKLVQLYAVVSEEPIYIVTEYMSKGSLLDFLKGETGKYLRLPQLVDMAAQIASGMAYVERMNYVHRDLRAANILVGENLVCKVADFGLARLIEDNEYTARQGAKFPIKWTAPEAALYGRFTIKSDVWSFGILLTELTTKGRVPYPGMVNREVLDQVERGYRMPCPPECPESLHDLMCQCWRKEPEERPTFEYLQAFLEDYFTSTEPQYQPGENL
Chain of Tyrosine-protein kinase Lck (P06239 whole entry): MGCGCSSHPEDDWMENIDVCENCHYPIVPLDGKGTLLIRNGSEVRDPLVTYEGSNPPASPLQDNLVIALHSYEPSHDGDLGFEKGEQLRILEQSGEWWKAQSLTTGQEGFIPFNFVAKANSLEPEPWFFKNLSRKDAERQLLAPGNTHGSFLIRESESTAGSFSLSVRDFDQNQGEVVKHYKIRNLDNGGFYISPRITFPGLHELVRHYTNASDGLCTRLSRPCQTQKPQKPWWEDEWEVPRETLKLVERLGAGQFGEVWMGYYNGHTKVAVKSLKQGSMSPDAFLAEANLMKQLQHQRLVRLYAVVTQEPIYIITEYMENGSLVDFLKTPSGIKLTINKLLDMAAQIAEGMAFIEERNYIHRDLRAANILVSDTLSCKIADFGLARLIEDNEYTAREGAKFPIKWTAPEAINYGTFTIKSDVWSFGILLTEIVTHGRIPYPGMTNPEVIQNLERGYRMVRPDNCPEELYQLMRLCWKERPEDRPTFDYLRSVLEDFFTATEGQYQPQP

Compound | IC50 [1] | IC50 [2] | IC50 [3] | AUC [4] | hepatic extraction ratio [5] | AUC (Mus musculus) | IC50 (BaF3)
Cc1cn(-c2cc(NC(=O)c3ccc(C)c(Nc4nc5ccccc5n4-c4cc(N)ncn4)c3)cc(C(F)(F)F)c2)cn1 |  | 238 nM | 904 nM |  |  |  | 
Cc1cccc(NC(=O)c2ccc(C)c(Nc3nc4ccccc4n3-c3cc(NCCCCN(C)C)ncn3)c2)c1 |  | 22 nM | > 2500 nM |  |  |  | 
CCN(CC)CCCCNc1cc(-n2c(Nc3cc(C(=O)Nc4cccc(C)c4)ccc3C)nc3ccccc32)ncn1 |  | 20 nM | 1810 nM |  |  |  | 
Cc1cccc(NC(=O)c2ccc(C)c(Nc3nc4ccccc4n3-c3cc(NCCN4CCN(C)CC4)ncn3)c2)c1 |  | 38 nM | > 2500 nM |  |  |  | 
Cc1cccc(NC(=O)c2ccc(C)c(Nc3nc4ccccc4n3-c3cc(NCCCN4CCN(C)CC4)ncn3)c2)c1 |  | 19 nM | 1870 nM |  |  |  | 
Cc1ccc(C(=O)Nc2cccc(C(F)(F)F)c2)cc1Nc1nc2ccccc2n1-c1cc(NCCC#N)ncn1 |  | 1370 nM | > 2500 nM |  |  |  | 
Cc1ccc(NC(=O)c2cccc(C(F)(F)F)c2)cc1Nc1nc2ccccc2n1-c1cc(NCCCN)ncn1 |  | 23 nM | 1960 nM |  |  |  | 
Cc1ccc(NC(=O)c2cccc(C(F)(F)F)c2)cc1Nc1nc2ccccc2n1-c1cc(NCCC2CCCN2)ncn1 (stereo not drawn) | > 2500 nM | 38 nM | 805 nM |  |  |  | 
Cc1ccc(NC(=O)c2cccc(C(F)(F)F)c2)cc1Nc1nc2ccccc2n1-c1cc(NC2CCN(C)CC2)ncn1 | > 2500 nM | 168 nM | > 2500 nM |  |  |  | 
Cc1ccc(NC(=O)c2cccc(C(F)(F)F)c2)cc1Nc1nc2ccccc2n1-c1cc(NCCc2ccccn2)ncn1 | 2370 nM | 204 nM | 917 nM |  |  |  | 
Cc1ccc(NC(=O)c2cccc(C(F)(F)F)c2)cc1Nc1nc2ccccc2n1-c1cc(N2CCOCC2)ncn1 | > 2500 nM | > 2500 nM | > 2500 nM |  |  |  | 
Cc1ccc(C(=O)Nc2ccccc2)cc1Nc1nc2ccccc2n1-c1cc(N)ncn1 |  | 1080 nM | > 2500 nM |  |  |  | 
Cc1cc(NC(=O)c2ccc(C)c(Nc3nc4ccccc4n3-c3cc(N)ncn3)c2)ccn1 |  | 177 nM | > 2500 nM |  |  |  | 
Cc1ccc(C(=O)Nc2cccc(C(F)(F)F)c2)cc1Nc1nc2ccccc2n1-c1ncnc(N)c1C | > 2500 nM | 2400 nM | > 2500 nM |  |  |  | 
Cc1ccc(C(=O)Nc2cccc(C(N)=O)c2)cc1Nc1nc2ccccc2n1-c1cc(N)ncn1 |  | > 2500 nM | > 2500 nM |  |  |  | 
COc1cccc(NC(=O)c2ccc(C)c(Nc3nc4ccccc4n3-c3cc(N)ncn3)c2)c1 |  | 90 nM | > 2500 nM |  |  |  | 
Cc1ccc(C(=O)Nc2cccc3cnccc23)cc1Nc1nc2ccccc2n1-c1cc(N)ncn1 |  | 616 nM | > 2500 nM |  |  |  | 
Cc1ccc(NC(=O)c2ccncc2Cl)cc1Nc1nc2ccccc2n1-c1cc(N)ncn1 |  | 715 nM | > 2500 nM |  |  |  | 
Cc1ccc(NC(=O)c2cc(C3CC3)n[nH]2)cc1Nc1nc2ccccc2n1-c1cc(N)ncn1 | 7360 nM | 120 nM | 446 nM |  |  |  | 
Cc1cccc(NC(=O)c2ccc(C)c(Nc3nc4ccccc4n3-c3cc(N)ncn3)c2)c1 |  | 52 nM | > 2500 nM |  |  |  | 
Cc1ccc(C(=O)Nc2cccc(C(C)C)c2)cc1Nc1nc2ccccc2n1-c1cc(N)ncn1 |  | 30 nM | 151 nM |  |  |  | 
COc1cc(-n2c(Nc3cc(NC(=O)c4cccc(C(F)(F)F)c4)ccc3C)nc3ccccc32)ncn1 | > 2500 nM | 2030 nM | > 2500 nM |  |  |  | 
Cc1ccc(C(=O)Nc2cccc(C(F)(F)F)c2)cc1Nc1nc2ccccc2n1-c1cc(N)ncn1 |  | 59 nM | > 2500 nM |  |  |  | 
Cc1ccc(NC(=O)c2cccc(C(F)(F)F)c2)cc1Nc1nc2ccccc2n1-c1cc(NCCN)ncn1 |  | 230 nM | > 2500 nM |  |  |  | 
Cc1ccc(C(=O)Nc2cccc(Cl)c2)cc1Nc1nc2ccccc2n1-c1cc(N)ncn1 |  | 63 nM | > 2500 nM |  |  |  | 
Cc1ccc(C(=O)Nc2cccc(OC(F)F)c2)cc1Nc1nc2ccccc2n1-c1cc(N)ncn1 |  | 17 nM | > 2500 nM |  |  |  | 
Cc1ccc(C(=O)Nc2cccc(Br)c2)cc1Nc1nc2ccccc2n1-c1cc(N)ncn1 |  | 43 nM | > 2500 nM |  |  |  | 
Cc1ccc(NC(=O)c2cc(C(C)(C)C)nn2C)cc1Nc1nc2ccccc2n1-c1cc(N)ncn1 | 7190 nM | 316 nM | 844 nM |  |  |  | 
Cc1ccc(NC(=O)c2cccc(C(F)(F)F)c2)cc1Nc1nc2ccccc2n1-c1cc(Cl)ncn1 | 16500 nM | 1160 nM | 3830 nM |  |  |  | 

More lines, main results first:

IC50 [1] | IC50 [2] | IC50 [3] | AUC [4] | hepatic extraction ratio [5] | Compound | AUC (Mus musculus) | IC50 (BaF3)
177 nM | 8 nM | 11 nM |  |  | Cc1ccc(NC(=O)c2cc(CN3CCN(C)CC3)n(C(C)(C)C)n2)cc1Nc1nc2ccccc2n1-c1cc(N)ncn1 |  | 
485 nM | 15 nM | 56 nM |  |  | Cc1ccc(C(=O)Nc2cccc(C(F)(F)F)c2)cc1Nc1nc2ccccc2n1-c1cc(NCCCCN(C)C)ncn1 |  | 
274 nM | 18 nM | 475 nM |  |  | CCN(CC)CCCCNc1cc(-n2c(Nc3cc(C(=O)Nc4cccc(C(F)(F)F)c4)ccc3C)nc3ccccc32)ncn1 |  | 
458 nM | 11 nM | 130 nM |  |  | Cc1ccc(C(=O)Nc2cccc(C(F)(F)F)c2)cc1Nc1nc2ccccc2n1-c1cc(NCCN2CCN(C)CC2)ncn1 |  | 
494 nM | 18 nM | 260 nM |  |  | Cc1ccc(C(=O)Nc2cccc(C(F)(F)F)c2)cc1Nc1nc2ccccc2n1-c1cc(NCCCN2CCN(C)CC2)ncn1 |  | 
 | 12 nM | 54 nM |  |  | Cc1ccc(C(=O)Nc2cccc(C(F)(F)F)c2)cc1Nc1nc2ccccc2n1-c1ncnc(NCCCN2CCN(C)CC2)n1 |  | 
233 nM | 24 nM | 27 nM |  |  | Cc1ccc(NC(=O)c2cc(OC3CCN(C)CC3)cc(C(F)(F)F)c2)cc1Nc1nc2ccccc2n1-c1cc(N)ncn1 |  | 
32 nM | 4 nM | 9 nM |  |  | CCN1CCN(Cc2ccc(C(=O)Nc3ccc(C)c(Nc4nc5ccccc5n4-c4cc(N)ncn4)c3)cc2Cl)CC1 |  | 
130 nM | 11 nM | 20 nM |  |  | Cc1ccc(NC(=O)c2cc(N3CCN(C)CC3)cc(C(F)(F)F)c2)cc1Nc1nc2ccccc2n1-c1cc(N)ncn1 |  | 
71 nM | 11 nM | 16 nM |  |  | CCN1CCN(c2cc(C(=O)Nc3ccc(C)c(Nc4nc5ccccc5n4-c4cc(N)ncn4)c3)cc(C(F)(F)F)c2)CC1 |  | 
 | 13 nM | 345 nM |  |  | Cc1ccc(NC(=O)c2cccc(C(F)(F)F)c2)cc1Nc1nc2ccccc2n1-c1cc(NCCCCN)ncn1 |  | 
> 2500 nM | 111 nM | 378 nM |  |  | CCN(CC)CCNc1cc(-n2c(Nc3cc(NC(=O)c4cccc(C(F)(F)F)c4)ccc3C)nc3ccccc32)ncn1 |  | 
139 nM | 5 nM | 65 nM |  |  | Cc1ccc(NC(=O)c2cccc(C(F)(F)F)c2)cc1Nc1nc2ccccc2n1-c1cc(NCCCCN(C)C)ncn1 |  | 
97 nM | 12 nM | 430 nM | 0.368 µM·h | < 0.3 | CCN(CC)CCCCNc1cc(-n2c(Nc3cc(NC(=O)c4cccc(C(F)(F)F)c4)ccc3C)nc3ccccc32)ncn1 |  | 
165 nM | 26 nM | 49 nM |  |  | Cc1ccc(NC(=O)c2cccc(C(F)(F)F)c2)cc1Nc1nc2ccccc2n1-c1cc(NCCCC2COCCN2)ncn1 (stereo not drawn) |  | 
1720 nM | 71 nM | 450 nM |  | 0.383 | Cc1ccc(NC(=O)c2cccc(C(F)(F)F)c2)cc1Nc1nc2ccccc2n1-c1cc(N[C@H]2CC[C@H](N)CC2)ncn1 |  | 
305 nM | 29 nM | 69 nM |  |  | Cc1ccc(NC(=O)c2cccc(C(F)(F)F)c2)cc1Nc1nc2ccccc2n1-c1cc(NCCN2CCN(C)CC2)ncn1 |  | 
128 nM | 6 nM | 31 nM |  |  | Cc1ccc(NC(=O)c2cccc(C(F)(F)F)c2)cc1Nc1nc2ccccc2n1-c1cc(NCCCN2CCN(C)CC2)ncn1 |  | 
1690 nM | 135 nM | 405 nM |  |  | COCCNc1cc(-n2c(Nc3cc(NC(=O)c4cccc(C(F)(F)F)c4)ccc3C)nc3ccccc32)ncn1 | 2687 nmol·h/L | 
1650 nM | 132 nM | 475 nM |  |  | Cc1ccc(NC(=O)c2cccc(Cl)c2)cc1Nc1nc2ccccc2n1-c1cc(N)ncn1 |  | 
450 nM | 11 nM | 43 nM |  |  | Cc1ccc(NC(=O)c2cccc(C(F)(F)F)c2)cc1Nc1nc2ccccc2n1-c1cc(N)ncn1 |  | 
530 nM | 58 nM | 121 nM |  |  | Cc1ccc(NC(=O)c2cc(Cl)cc(Cl)c2)cc1Nc1nc2ccccc2n1-c1cc(N)ncn1 |  | 
1540 nM | 70 nM | 245 nM |  |  | Cc1cccc(C(=O)Nc2ccc(C)c(Nc3nc4ccccc4n3-c3cc(N)ncn3)c2)c1 |  | 
 |  | 46 nM |  |  | Cc1ccc(NC(=O)c2ccncc2C(C)(C)C)cc1Nc1nc2ccccc2n1-c1cc(N)ncn1 |  | 
916 nM | 43 nM | 84 nM |  |  | Cc1ccc(NC(=O)c2ccc(C(C)(C)C)s2)cc1Nc1nc2ccccc2n1-c1cc(N)ncn1 |  | 6 nM
 | 22 nM | 139 nM |  |  | Cc1ccc(C(=O)Nc2cccc(C(C)(C)C)c2)cc1Nc1nc2ccccc2n1-c1cc(N)ncn1 |  | 
1920 nM | 27 nM | 192 nM |  |  | Cc1ccc(NC(=O)c2cccc(C(F)(F)F)c2)cc1Nc1nc2ccccc2n1-c1cc(NCCO)ncn1 |  | 
